Activity calls are given as the source filed them. No cut-off for these calls is given here.
Tests used:
[1] = Anti-lymphangiogenic activity in HDLEC assessed as cell growth at 50 ug/ml incubated for 48 hrs by SRB staining based assay relative to control; assay type: functional; settings: Homo sapiens, read-out: Activity
[2] = species on record: Homo sapiens; assay: Anti-lymphangiogenic activity in HDLEC assessed as reduction in tube formation at 50 ug/ml incubated for 8 hrs by matrigel tube formation based inverted phase contrast microscopic analysis; assay type: functional
[3] = Anti-lymphangiogenic activity in HDLEC assessed as reduction in tube formation incubated for 8 hrs by matrigel tube formation based inverted phase contrast microscopic analysis; assay type: functional, Homo sapiens
[4] = Cytotoxicity against HDLEC at 50 ug/ml incubated for 24 hrs by LDH assay; settings: human
[5] = Anti-lymphangiogenic activity in HDLEC assessed as cell growth at 10 ug/ml incubated for 48 hrs by SRB staining based assay relative to control; assay type: functional; settings: Homo sapiens, read-out: Activity

**Q.** For CC1=CC(=O)[C@@H]2[C@@H](C1)[C@]13C=C4N5C[C@H]6C[C@H](C)C[C@]5(CC[C@@]4(C)[C@]4(COC(=O)C4)[C@H]1[C@@](O)(OC3)[C@@H]2C)O6, which growth at 50 µg/mL [1] is on record?
**A.** 88%

**Q.** With CC1=CC(=O)[C@@H]2[C@@H](C1)[C@]13C=C4N5C[C@@H]6O[C@@]5(CC[C@@]4(C)[C@]4(COC(=O)C4)[C@H]1[C@@](O)(OC3)[C@@H]2C)C[C@@H](C)[C@H]6O as the compound, how does the growth at 50 µg/mL [1] read?
**A.** 101%

**Q.** For CC1=CC(=O)[C@@H]2[C@@H](C1)[C@]13CO[C@@]4([C@@H]1O)N1C[C@H]5C[C@H](C)C[C@@]1(O5)[C@@H](O)C[C@@]4(C)[C@]1(COC(=O)C1)[C@H]3C(=O)[C@@H]2C, which growth at 50 µg/mL [1] is on record?
**A.** 100%

**Q.** With CC1=CC(=O)[C@@H]2[C@@H](C1)[C@]1(C)C=C3N4C[C@@H]5O[C@@]4(CC[C@@]3(C)[C@]3(COC(=O)C3)[C@H]1C(=O)[C@@H]2C)C[C@@H](C)[C@H]5O as the compound, how does the growth at 50 µg/mL [1] read?
**A.** 85%

**Q.** Which inhibition [2] does the source give for C[C@H]1C[C@@H]2CN3C4=C[C@@]5(C)[C@@H]6CC(CO)=CC(=O)[C@H]6[C@@H](C)C(=O)[C@@H]5[C@@]5(COC(=O)C5)[C@]4(C)CC[C@@]3(C1)O2 here?
**A.** Active

**Q.** What about the growth at 50 µg/mL [1] of the same compound?
**A.** 56%

**Q.** What about the IC50 [3] of the same compound?
**A.** 98 µM

**Q.** And the Activity [4]?
**A.** Non-Toxic

**Q.** Which growth at 50 µg/mL [1] does the source give for C[C@H]1C[C@@H]2CN3[C@H]4C(=O)[C@@]56CO[C@]7(C)CC(=O)[C@@H]([C@H]5C7)[C@@H](C)C(=O)[C@@H]6[C@@]5(COC(=O)C5)[C@]4(C)CC[C@@]3(C1)O2 here?
**A.** 86%

**Q.** With CC1=CC(=O)[C@@H]2[C@@H](C1)[C@]1(C)C=C3N4C[C@H]5C[C@H](C)C[C@]4(CC[C@@]3(C)[C@]3(COC(=O)C3)[C@H]1C(=O)[C@@H]2C)O5 as the compound, how does the growth at 50 µg/mL [1] read?
**A.** 91%

**Q.** For CC1=CC(=O)[C@@H]2[C@@H](C1)[C@]13C=C4N5C[C@H]6C[C@H](C)C[C@@]5(O6)[C@@H](O)C[C@@]4(C)[C@]4(COC(=O)C4)[C@H]1[C@@](O)(OC3)[C@@H]2C, which growth at 50 µg/mL [1] is on record?
**A.** 83%

**Q.** Which inhibition [2] does the source give for COC(=O)CNCC1=CC(=O)[C@@H]2[C@@H](C1)[C@]13C=C4N5C[C@H]6C[C@H](C)C[C@]5(CC[C@@]4(C)[C@]4(COC(=O)C4)[C@H]1[C@@](O)(OC3)[C@@H]2C)O6 here?
**A.** Active

**Q.** And the growth at 50 µg/mL [1]?
**A.** 38%

**Q.** What about the IC50 [3] of the same compound?
**A.** 68 µM

**Q.** What about the Activity [4] of the same compound?
**A.** Non-Toxic

**Q.** With COC(=O)CNCC1=CC(=O)[C@@H]2[C@@H](C1)[C@]13CO[C@@]4([C@@H]1O)N1C[C@H]5C[C@H](C)C[C@]1(CC[C@@]4(C)[C@]1(COC(=O)C1)[C@H]3C(=O)[C@@H]2C)O5 as the compound, how does the growth at 50 µg/mL [1] read?
**A.** 76%

**Q.** For CC1=CC(=O)[C@@H]2[C@@H](C1)[C@]13CO[C@@]4([C@@H]1O)N1C[C@H]5C[C@H](C)C[C@]1(CC[C@@]4(C)[C@]1(COC(=O)C1)[C@H]3C(=O)[C@@H]2C)O5, which growth at 50 µg/mL [1] is on record?
**A.** 81%

**Q.** For C[C@H]1C[C@@H]2CN3C4=C[C@@]56CO[C@]7(C)CC(=O)[C@@H]([C@H]5C7)[C@@H](C)C(=O)[C@H]6[C@@]5(COC(=O)C5)[C@]4(C)CC[C@@]3(C1)O2, which growth at 50 µg/mL [1] is on record?
**A.** 82%

**Q.** With C[C@H]1C[C@@H]2CN3C4=C[C@@]56CO[C@]7(C)CC(=O)[C@@H]([C@H]5C7)[C@@H](C)C(=O)[C@@H]6[C@@]5(COC(=O)C5)[C@]4(C)CC[C@@]3(C1)O2 as the compound, how does the growth at 50 µg/mL [1] read?
**A.** 85%

**Q.** What does the source list for C[C@H]1C[C@@H]2CN3C4=C[C@@]56CO[C@@](O)([C@H](C)[C@@H]7C(=O)C=C(CO)C[C@H]75)[C@@H]6[C@@]5(COC(=O)C5)[C@]4(C)CC[C@@]3(C1)O2?
**A.** inhibition [2]: Active; growth at 50 µg/mL [1]: 60%; IC50 [3]: 99 µM; Activity [4]: Non-Toxic

**Q.** For CO[C@H]1C[C@@H]2CC[C@@H](C)[C@@](O)(O2)C(=O)C(=O)N2CCCC[C@H]2C(=O)O[C@H]([C@H](C)C[C@@H]2CC[C@@H](O)[C@H](OC)C2)CC(=O)[C@H](C)/C=C(\C)[C@@H](O)[C@@H](OC)C(=O)[C@H](C)C[C@H](C)/C=C/C=C/C=C/1C [SIROLIMUS], which growth at 10 µg/mL [5] is on record?
**A.** 17%

**Q.** What about the IC50 [3] of the same compound?
**A.** 57 µM

**Q.** With CC1=CC(=O)[C@@H]2[C@@H]([C@@H]1O)[C@]1(C)C=C3N4C[C@H]5C[C@H](C)C[C@]4(CC[C@@]3(C)[C@]3(COC(=O)C3)[C@H]1C(=O)[C@@H]2C)O5 as the compound, how does the growth at 50 µg/mL [1] read?
**A.** 75%

**Q.** Which growth at 50 µg/mL [1] does the source give for C[C@H]1C[C@@H]2CN3[C@](CC[C@@]4(C)[C@]5(COC(=O)C5)[C@H]5C(=O)[C@H](C)[C@@H]6C(=O)C=C(CO)C[C@H]6[C@@]56CO[C@@]34[C@@H]6O)(C1)O2 here?
**A.** 66%

**Q.** Which growth at 50 µg/mL [1] does the source give for CC1=CC(=O)[C@@H]2[C@@H](C1)[C@]13CO[C@@]4([C@@H]1O)N1C[C@@H]5O[C@@]1(CC[C@@]4(C)[C@]1(COC(=O)C1)[C@H]3C(=O)[C@@H]2C)C[C@@H](C)[C@H]5O here?
**A.** 98%

Source: ChEMBL document CHEMBL4376824, “Anti-Lymphangiogenic Alkaloids from the Zoanthid Zoanthus vietnamensis Collected in Taiwan” (J Nat Prod, 2019)
